Assay results published in patent US6455575B2, “Phosphonooxymethyl ethers of taxane derivatives” (Bristol-Myers Squibb Company, priority 1992, dated 2002).

Key:
[1] = test system: HCT-116 human colon carcinoma; assay: HCT-116 human tumor xenograft model; assay type: in vivo; settings: for cures (tumor-free on Day 80 post tumor implant): athymic mice, every other day x5
[2] = test system: HCT-116 human colon carcinoma cells; assay: In vitro cytotoxicity, XTT assay; assay type: cell-based; settings: 72 h incubation, Examples 1 and 4 as free acid, example 3 as sodium salt
[3] = test system: HCT-116/VM46 human colon carcinoma cells; assay: In vitro cytotoxicity, XTT assay, multi-drug resistant line; assay type: cell-based; settings: 72 h incubation, teniposide-selected, paclitaxel-resistant cells, Examples 1 and 4 as free acid, example 3 as sodium salt
M109 lung carcinoma [4] = assay: In vivo antitumor activity, subcutaneous M109 model; parameters: species or system mice; settings: for T-C / max. % T/C: once daily x5 from Day 4
M109 lung carcinoma [5] = assay: Mice M109 model, intraperitoneal implant; assay type: in vivo; settings: ip M109, ip injections, d. 5 + 9, median survival
Experimental: Balb/c x DBA/2 F1 hybrid mice were implanted intraperitoneally, as described by William Rose in Evaluation of Madison 109 Lung Carcinoma as a Model for Screening Antitumor Drugs, Cancer Treatment Reports, 65, No. 3-4 (1981), with 0.5 mL of a 2% (w/v) brei of M109 lung carcinoma.
Mice were treated with compound under study by receiving intraperitoneal injections of various doses on either days 1, 5 and 9 post-tumor implant or days 5 and 8 post-implant. Mice were followed daily for survival until approximately 75 -90 days post-tumor implant. One group of mice per experiment remained untreated and served as the control group. Median survival times of compound-treated (T) mice were compared to the median survial time of the control (C) mice. The ratio of the two values for each compound-treated group of mice was multiplied by 100 and expressed as a percentage (i.e. % T/C) in Table III for representative compounds of formula (B′).

[6] = test system: A2780/cDDP human ovarian carcinoma resistant to cisplatin; assay: A2780/cDDP human tumor xenograft model; assay type: in vivo; settings: athymic mice, every other day x5
[7] = iv, 36 mg/kg/inj, Example 3 as triethanolamine salt
[8] = another M109 experiment, triethanolamine salt, iv, 48 mg/kg/inj.
[9] = another M109 experiment, triethanolamine salt, orally, 200 mg/kg/adm.
[10] = one M109 experiment, triethanolamine salt, iv in water, 36 mg/kg/inj.
[11] = one M109 experiment, triethanolamine salt, orally, 160 mg/kg/adm.
[12] = another M109 experiment, iv, 48 or 36 mg/kg/inj.
[13] = one M109 experiment, iv, 36 or 18 mg/kg/inj.
[14] = sc M109, i.v. once daily days 5-9, opt. dose 18 mg/kg/inj

7-O-phosphonooxymethylpaclitaxel [Example 1]
oral activity in the HCT-116 model ([1]; triethanolamine salt, oral): oral activity | IC50 [2]: 0.0158 µM | IC50 [3]: 1.24 µM | Maximum Effect T-C (M109 lung carcinoma [4]; sc M109, CDF1 mice, sodium salt, i.v. once daily days 4-8, opt. dose 45 mg/kg/inj, delay to 1 gm tumor): 14.0 days | Maximum Effect % T/C (M109 lung carcinoma [4]; sc M109, CDF1 mice, sodium salt, i.v. once daily days 4-8 post-tumor implant, opt. dose 45 mg/kg/inj, median survival): 131% | oral activity in the M109 model (M109 lung carcinoma [4]; triethanolamine salt, oral): oral activity

CSCO[C@H]1C[C@H]2OC[C@@]2(OC(C)=O)[C@H]2[C@H](OC(=O)c3ccccc3)[C@]3(O)C[C@H](OC(=O)[C@H](O)[C@@H](NC(=O)OC(C)(C)C)c4ccccc4)C(C)=C([C@@H](OC(C)=O)C(=O)[C@]12C)C3(C)C [14 (b), 3′-N-debenzoyl-3′-N-(t-butoxycarbonyl)-7-O-methylthiomethylpaclitaxel]
T/C (mg/kg/inj.; schedule in days) (M109 lung carcinoma [5]; 12 mg/kg/inj.): 143 (12; d. 5 + 9) %

CSCO[C@H]1C[C@H]2OC[C@@]2(OC(C)=O)[C@H]2[C@H](OC(=O)c3ccccc3)[C@]3(O)C[C@H](OC(=O)[C@H](O)[C@@H](NC(=O)c4ccccc4)c4ccccc4)C(C)=C([C@@H](OC(C)=O)C(=O)[C@]12C)C3(C)C [Example 1 (a), 7-O-methylthiomethylpaclitaxel]
IC50 [2]: 0.003 µM | IC50 [3]: 0.025 µM

CCOC(=O)O[C@@H](C(=O)O[C@H]1C[C@@]2(O)[C@@H](OC(=O)c3ccccc3)[C@@H]3[C@]4(OC(C)=O)CO[C@@H]4C[C@H](OCOP(=O)(O)O)[C@@]3(C)C(=O)[C@H](OC(C)=O)C(=C1C)C2(C)C)[C@@H](NC(=O)c1ccccc1)c1ccccc1 [Example 3, 2′-O-(ethoxycarbonyl)-7-O-phosphonooxymethylpaclitaxel]
cures (tumor-free on Day 80 post tumor implant) ([1]; oral, 160 mg/kg/adm., triethanolamine salt, of 8 treated mice): 6 | cures (tumor-free on Day 80 post tumor implant) ([1]; oral, 240 mg/kg/adm., triethanolamine salt, of 8 treated mice): 7 | IC50 [2]: 0.312 µM | max. T-C [6, 7]: 29.8 days | max. T-C ([6]; orally, 160 mg/kg/adm., triethanolamine salt): 20 days | IC50 [3]: 6.25 µM | T-C (M109 lung carcinoma [4]; [8]): 17 days | max. % T/C (M109 lung carcinoma [4]; [8]): 170% | T-C (M109 lung carcinoma [4]; [9]): 17 days | max. % T/C (M109 lung carcinoma [4]; [9]): 172% | T-C (M109 lung carcinoma [4]; [10]): 19 days | max. % T/C (M109 lung carcinoma [4]; [10]): 155% | T-C (M109 lung carcinoma [4]; [11]): 22.8 days | max. % T/C (M109 lung carcinoma [4]; [11]): 158% | Maximum Effect T-C (M109 lung carcinoma [4]; sc M109, sodium salt, i.v. once daily days 5-9, opt. dose 24 mg/kg/inj): 18.8 days | Maximum Effect % T/C (M109 lung carcinoma [4]; sc M109, sodium salt, i.v. once daily days 5-9 post-tumor implant, opt. dose 24 mg/kg/inj): 160%

CC(=O)O[C@H]1C(=O)[C@@]2(C)[C@H]([C@H](OC(=O)c3ccccc3)[C@]3(O)C[C@H](OC(=O)[C@H](OCOP(=O)(O)O)[C@@H](NC(=O)c4ccccc4)c4ccccc4)C(C)=C1C3(C)C)[C@]1(OC(C)=O)CO[C@@H]1C[C@@H]2O [Example 4, 2′-O-(Phosphonooxymethyl)paclitaxel]
IC50 [2]: 0.0457 µM | IC50 [3]: > 6.3 µM

CCOC(=O)O[C@@H](C(=O)O[C@H]1C[C@@]2(O)[C@@H](OC(=O)c3ccccc3)[C@@H]3[C@]4(OC(C)=O)CO[C@@H]4C[C@H](OCSC)[C@@]3(C)C(=O)[C@H](OC(C)=O)C(=C1C)C2(C)C)[C@@H](NC(=O)OC(C)(C)C)c1ccccc1 [Example 15, 3′-N-debenzoyl-3′-N-(t-butoxycarbonyl)-2′-O-ethyloxycarbonyl-7-O-methylthiomethylpaclitaxel]
T/C (mg/kg/inj.; schedule in days) (M109 lung carcinoma [5]; 8 mg/kg/inj.): 192 (8; d. 5 + 9) %

CC(=O)O[C@@]12CO[C@@H]1C[C@H](O)[C@@]1(C)C(=O)[C@H](O)C3=C(C)[C@@H](OC(=O)[C@H](O)[C@@H](NC(=O)OC(C)(C)C)c4ccccc4)C[C@@](O)([C@@H](OC(=O)c4ccccc4)[C@H]21)C3(C)C [Texotere ®, reference compound]
IC50 [2]: 0.004 µM | IC50 [3]: 0.213 µM

CC(=O)O[C@H]1C(=O)[C@@]2(C)[C@H]([C@H](OC(=O)c3ccccc3)[C@]3(O)C[C@H](OC(=O)[C@H](O)[C@@H](NC(=O)c4ccccc4)c4ccccc4)C(C)=C1C3(C)C)[C@]1(OC(C)=O)CO[C@@H]1C[C@@H]2O [paclitaxel, reference compound]
cures (tumor-free on Day 80 post tumor implant) ([1]; iv, 24 mg/kg/inj., of 7 treated mice): 6 | cures (tumor-free on Day 80 post tumor implant) ([1]; iv, 36 mg/kg/inj., of 8 treated mice): 6 | IC50 [2]: 0.004 µM | max. T-C [6, 7]: 26.3 days | IC50 [3]: 0.44 µM | activity in sc M109 model (M109 lung carcinoma [4]; another M109 experiment, dissolved in cremophore/ethanol/saline, 60/mg/kg/inj.): did not show activity | T-C (M109 lung carcinoma [4]; [12]): 14 days | max. % T/C (M109 lung carcinoma [4]; [12]): 167% | activity in sc M109 model (M109 lung carcinoma [4]; one M109 experiment, 160 mg/kg/adm. (highest tested), suspended in water and Tween 80): did not show activity | T-C (M109 lung carcinoma [4]; [13]): 13 days | max. % T/C (M109 lung carcinoma [4]; [13]): 132% | Maximum Effect T-C (M109 lung carcinoma [4]; sc M109, i.v. once daily days 4-8, opt. dose 24 mg/kg/inj (lower dose gave maximum delay in tumor growth)): 14 days | Maximum Effect % T/C (M109 lung carcinoma [4]; sc M109, i.v. once daily days 4-8, opt. dose 48 mg/kg/inj (higher dose gave maximum increase in lifespan)): 134% | Maximum Effect % T/C (M109 lung carcinoma [4]; [14]): 151% | Maximum Effect T-C (M109 lung carcinoma [4]; [14]): 15 days
